In brackets after ≈: the same amount, converted by molar mass. Bridge positions count the residues as written; N and C are the ends. Peptide text beside a SMILES is read from it.
Assays:
[1] = system: intracellular S. aureus CVCC 546 in mouse macrophages RAW264.7 and bovine endometrial epithelial cells BNCC359233; experiment: Intracellular antibacterial activity; type: cell-based, Staphylococcus aureus; conditions: 5 × MIC; n = 3
Description: The method of intracellular bactericidal effect was described previously (Wang et al. [2018]). Only the number of cells and bacteria changed from 2.5 × 10^5 to 2 × 10^5 cells/mL.

S. aureus CVCC 546 [2] = experiment: Salt stability, MIC after treatment; type: physicochemical, Staphylococcus aureus; conditions: then MIC assay
S. aureus CVCC 546 [3] = experiment: Serum stability, MIC after treatment; type: in vitro ADME, Staphylococcus aureus; conditions: then MIC
Description: Table 4 The stability of AMPs in different environments | column: MIC

[4] = system: mouse macrophages RAW264.7; experiment: Cytotoxicity, MTT method; type: cell-based; conditions: 256 µg/mL; RAW264.7, MTT
Description: The cytotoxicity of AP138L-arg26 to mouse macrophages RAW264.7 was detected by the thiazolyl blue tetrazolium bromide (MTT) method as described previously (Shen et al. [2021]).

ICR mice = experiment: Acute toxicity in mice; type: in vivo, mouse
Procedure: AP138L-arg26 was administrated by intraperitoneal injection (n = 4 per group, 10 mg/kg, body weight 25 g) every day for 1 week (Shi et al. [2022]). After 7 days, the mice were euthanized to collect anticoagulant whole-blood and tissues (liver, spleen, kidney, and lung), which were used for whole blood and biochemical detection, or tissue sections (hematoxylin-eosin (HE) staining), respectively.

S. aureus CVCC 546 [5] = experiment: SYTO9/PI membrane integrity assay; type: cell-based, Staphylococcus aureus; conditions: 2 × MIC, 37 °C, 1 h; 1 × 10^9 CFU/mL; fluorescence microscopy
Description: To explore the disruption of bacterial cell membranes by the AP138L-arg26, a SYTO9/PI kit was used to detect the integrity of cell membranes (L7007 LIVE/DEAD^R BacLight™ Bacerial Viability Kits). The unique feature of this kit is that SYTO9 alone can pass through integral cell membranes, while PI can only penetrate damaged cell membranes. […] Finally, the results were observed using fluorescence microscopy.

S. aureus CVCC 546 [6] = experiment: Potassium ion (K+) leakage, ICP-MS; type: cell-based, Staphylococcus aureus
Description: The integrity effect of antimicrobial peptide AP138L-arg26 on bacterial cell membranes was further verified, and the K^+ leakage assay was previously described (Li et al. [2020]). Briefly, the main procedures were as follows: Firstly, prepare the S. aureus CVCC 546 bacteria suspension at a concentration of 1 × 10^8 CFU/mL. […] Finally, the supernatants were detected using inductively coupled plasma mass spectrometry (ICP-MS) (SantaClara, CA, USA).

S. aureus CVCC 546 [7] = experiment: Intracellular ATP determination; type: cell-based, Staphylococcus aureus
Description: As ATP is the most direct source of energy for living organisms, the effect of antimicrobial peptides on ATP was explored with an ATP assay kit (Beyotime, Shanghai, China). […] The luminescence was detected using an Infinite M200 Microplate reader (Tecan, Luminescence signals).

S. aureus = experiment: Intracellular LDH activity; type: cell-based, Staphylococcus aureus; conditions: 6 h, treated cells/the control, n = 3
Procedure: As disruption of the cell membrane structure leads to the release of LDH from the cytoplasm into the culture medium, the detection of LDH in bacteria can further reveal the antibacterial mechanism (Shi et al. [2022]). Briefly, S. aureus cells were co-incubated with AP138L-arg26 for 6 h. Later, the pellets were collected and sonicated (3 s/10 s, 30 times). The intracellular LDH activity was detected using an Infinite M200 Microplate reader (Tecan, Luminescence signals). The calculated results of LDH% = treated cells/the control.

SMILES: CC[C@H](C)[C@@H]1NC(=O)[C@H](CO)NC(=O)[C@H](CCCCN)NC(=O)[C@@H]2CSSC[C@@H](C(=O)N[C@@H](Cc3ccc(O)cc3)C(=O)O)NC(=O)[C@H](CCCCN)NC(=O)[C@@H]3CSSC[C@H](NC(=O)[C@H](CCCNC(=N)N)NC(=O)[C@H](CC(C)C)NC(=O)[C@H](CC(=O)O)NC(=O)[C@H](CC(=O)O)NC(=O)[C@H](CCC(=O)O)NC(=O)[C@H](CO)NC(=O)[C@H](Cc4c[nH]c5ccccc45)NC(=O)[C@@H]4CCCN4C(=O)CNC(=O)[C@H](CC(N)=O)NC(=O)[C@@H](NC(=O)CNC(=O)[C@H](Cc4ccccc4)NC(=O)CN)CSSC[C@H](NC(=O)[C@H](Cc4ccc(O)cc4)NC(=O)CNC(=O)CNC(=O)[C@H](CCCNC(=N)N)NC(=O)[C@H](Cc4ccc(O)cc4)NC(=O)CNC(=O)[C@H](CCCCN)NC1=O)C(=O)N[C@@H](C)C(=O)N[C@@H](CCCCN)C(=O)NCC(=O)NCC(=O)N[C@@H](Cc1ccccc1)C(=O)N[C@@H](C(C)C)C(=O)N3)C(=O)N[C@@H](Cc1c[nH]cn1)C(=O)N[C@@H](CCCNC(=N)N)C(=O)N[C@@H](Cc1c[nH]cn1)C(=O)N2 [AP138L-arg26] (H-GFGCNGPWSEDDLRCHRHCKSIKGYRGGYCAKGGFVCKCY-OH; disulfide 4-30, 15-37, 19-39; N-terminus and C-terminus assumed)
- intracellular bacteria killed [1]: more than 70%
- MIC, CaCl2 (2.5 mM) (S. aureus CVCC 546 [2]; peptide incubated with 2.5 mM CaCl2 for 1 h at 37 °C): 8 µg/mL
- MIC, KCl (2.5 mM) (S. aureus CVCC 546 [2]; peptide incubated with 2.5 mM KCl for 1 h at 37 °C): 8 µg/mL
- MIC, MgCl2 (2.5 mM) (S. aureus CVCC 546 [2]; peptide incubated with 2.5 mM MgCl2 for 1 h at 37 °C): 16 µg/mL
- MIC, CaCl2 (5 mM) (S. aureus CVCC 546 [2]; peptide incubated with 5 mM CaCl2 for 1 h at 37 °C): 16 µg/mL
- MIC, KCl (5 mM) (S. aureus CVCC 546 [2]; peptide incubated with 5 mM KCl for 1 h at 37 °C): 8 µg/mL
- MIC, MgCl2 (5 mM) (S. aureus CVCC 546 [2]; peptide incubated with 5 mM MgCl2 for 1 h at 37 °C): 16 µg/mL
- MIC, NaCl (50 mM) (S. aureus CVCC 546 [2]; peptide incubated with 50 mM NaCl for 1 h at 37 °C): 8 µg/mL
- MIC, NaCl (100 mM) (S. aureus CVCC 546 [2]; peptide incubated with 100 mM NaCl for 1 h at 37 °C): 8 µg/mL
- MIC, NaCl (150 mM) (S. aureus CVCC 546 [2]; peptide incubated with 150 mM NaCl for 1 h at 37 °C): 8 µg/mL
- MIC, NaCl (200 mM) (S. aureus CVCC 546 [2]; peptide incubated with 200 mM NaCl for 1 h at 37 °C): 16 µg/mL
- MIC, NaCl (300 mM) (S. aureus CVCC 546 [2]; peptide incubated with 300 mM NaCl for 1 h at 37 °C): 16 µg/mL
- MIC, CaCl2 ([…]) (S. aureus CVCC 546 [2]; peptide incubated with […] CaCl2 for 1 h at 37 °C): 8 µg/mL
- MIC, KCl ([…]) (S. aureus CVCC 546 [2]; peptide incubated with […] KCl for 1 h at 37 °C): 8 µg/mL
- MIC, MgCl2 ([…]) (S. aureus CVCC 546 [2]; peptide incubated with […] MgCl2 for 1 h at 37 °C): 8 µg/mL
- MIC, 25% serum (0.5 h) (S. aureus CVCC 546 [3]; peptide in 25% serum for 0.5 h): 8 µg/mL (≈ 1.8 µM)
- MIC, 25% serum (1 h) (S. aureus CVCC 546 [3]; peptide in 25% serum for 1 h): 16 µg/mL (≈ 3.59 µM)
- MIC, 25% serum (2 h) (S. aureus CVCC 546 [3]; peptide in 25% serum for 2 h): 16 µg/mL (≈ 3.59 µM)
- MIC, 25% serum (4 h) (S. aureus CVCC 546 [3]; peptide in 25% serum for 4 h): 8 µg/mL (≈ 1.8 µM)
- MIC, 25% serum (6 h) (S. aureus CVCC 546 [3]; peptide in 25% serum for 6 h): 16 µg/mL (≈ 3.59 µM)
- MIC, 25% serum (8 h) (S. aureus CVCC 546 [3]; peptide in 25% serum for 8 h): 8 µg/mL (≈ 1.8 µM)
- MIC, 50% serum (0.5 h) (S. aureus CVCC 546 [3]; peptide in 50% serum for 0.5 h): 8 µg/mL (≈ 1.8 µM)
- MIC, 50% serum (1 h) (S. aureus CVCC 546 [3]; peptide in 50% serum for 1 h): 8 µg/mL (≈ 1.8 µM)
- MIC, 50% serum (2 h) (S. aureus CVCC 546 [3]; peptide in 50% serum for 2 h): 8 µg/mL (≈ 1.8 µM)
- MIC, 50% serum (4 h) (S. aureus CVCC 546 [3]; peptide in 50% serum for 4 h): 8 µg/mL (≈ 1.8 µM)
- MIC, 50% serum (6 h) (S. aureus CVCC 546 [3]; peptide in 50% serum for 6 h): 8 µg/mL (≈ 1.8 µM)
- MIC, 50% serum (8 h) (S. aureus CVCC 546 [3]; peptide in 50% serum for 8 h): 8 µg/mL (≈ 1.8 µM)
- cell viability [4]: over 75%
- histology (HE) of heart, kidney, spleen, lung and liver (ICR mice; 10 mg/kg i.p. daily for a week): no hyperemia, bleeding, hyperplasia, or other lesions
- whole blood detection indexes and biochemical indexes compared with the control group (ICR mice; 10 mg/kg i.p. daily for a week): no significant differences
- difference in biochemical index versus control (ICR mice; 10 mg/kg i.p. for 1 week): < 4%
- difference in whole blood detection indexes versus control (ICR mice; 10 mg/kg i.p. for 1 week): < 4.5%
- cells stained red by PI (S. aureus CVCC 546 [5]): more than 50%
- extracellular K+ leakage level (S. aureus CVCC 546 [6]; 2 × MIC, 37 °C, 1 × 10^8 CFU/mL, ICP-MS, untreated 0.02 mg/L): 0.05 mg/L
- intracellular potassium leakage relative to control (S. aureus CVCC 546 [6]; as given in the abstract): 2.5 fold
- intracellular ATP, times higher than the untreated group (S. aureus CVCC 546 [7]; 1 × MIC): 7.6 times
- intracellular ATP, times higher than the untreated group (S. aureus CVCC 546 [7]; 2 × MIC): 8.2 times
- intracellular ATP, times higher than the untreated group (S. aureus CVCC 546 [7]; 4 × MIC (maximum)): 8.5 times
- LDH activity % (S. aureus; 1 × MIC): 24%
- LDH activity % (S. aureus; 2 × MIC): 16%
- LDH activity % (S. aureus; 4 × MIC): 16%
